In US20100144758A1, “AZAINDOLE P2X3 AND P2X2/3 MODULATORS” (priority 2008, published 2010):

Experiments:
rat P2X3 receptor = target: T1, rat P2X3 receptor (Rattus norvegicus, UniProt P49654); assay: P2X3 FLIPR (Fluorometric Imaging Plate Reader) assay; type: cell-based; settings: CHO-K1 cells transfected with rat P2X3; agonist α,β-meATP 1 μM; Fluo-3 calcium fluorescence
T1 construct: expressed in transfected cells; host or cells: CHO-K1
T1 sequence (P49654 1-397): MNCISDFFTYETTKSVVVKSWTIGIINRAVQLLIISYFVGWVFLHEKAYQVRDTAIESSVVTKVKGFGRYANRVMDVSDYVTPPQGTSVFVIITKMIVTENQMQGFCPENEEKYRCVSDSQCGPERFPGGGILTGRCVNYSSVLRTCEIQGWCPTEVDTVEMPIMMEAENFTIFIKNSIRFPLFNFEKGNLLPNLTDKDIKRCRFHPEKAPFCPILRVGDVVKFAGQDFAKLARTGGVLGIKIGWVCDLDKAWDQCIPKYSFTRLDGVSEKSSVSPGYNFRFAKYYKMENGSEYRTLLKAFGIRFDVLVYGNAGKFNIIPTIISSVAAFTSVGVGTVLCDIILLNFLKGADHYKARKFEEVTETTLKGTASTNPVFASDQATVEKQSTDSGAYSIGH
Experimental: (§1) CHO-K1 cells were transfected with cloned rat P2X3 or human P2X2/3 receptor subunits and passaged in flasks. 18-24 hours before the FLIPR experiment, cells were released from their flasks, centrifuged, and resuspended in nutrient medium at 2.5×10^5 cells/ml. The cells were aliquoted into black-walled 96-well plates at a density of 50,000 cells/well and incubated overnight in 5% CO2 at 37° C. On the day of the experiment, cells were washed in FLIPR buffer (calcium- and magnesium-free Hank's balanced salt solution, 10 mM HEPES, 2 mM CaCl2, 2.5 mM probenecid; FB). Each well received 100 μl FB and 100 μl of the fluorescent dye Fluo-3 AM [2 μM final conc.]. […]
(§2) Test compounds (dissolved in DMSO at 10 mM and serially diluted with FB) or vehicle were added to each well (25 μl of a 4× solution) and allowed to equilibrate for 20 minutes at room temperature. The plates were then placed in the FLIPR and a baseline fluorescence measurement (excitation at 488 nm and emission at 510-570 nm) was obtained for 10 seconds before a 100 μl/well agonist or vehicle addition. […] Fluorescence was measured for an additional 2 minutes at 1 second intervals after agonist addition. A final addition of ionomycin (5 μM, final concentration) was made to each well of the FLIPR test plate to establish cell viability and maximum fluorescence of dye-bound cytosolic calcium. […]

human P2X2/3 receptor = target: T2, human P2X2/3 receptor (Homo sapiens, UniProt P56373+Q9UBL9); assay: P2X2/3 FLIPR (Fluorometric Imaging Plate Reader) assay; type: cell-based; settings: CHO-K1 cells transfected with human P2X2/3; agonist α,β-meATP 5 μM; Fluo-3 calcium fluorescence
T2 construct: expressed in transfected cells; host or cells: CHO-K1
T2 sequence (Q9UBL9 1-471): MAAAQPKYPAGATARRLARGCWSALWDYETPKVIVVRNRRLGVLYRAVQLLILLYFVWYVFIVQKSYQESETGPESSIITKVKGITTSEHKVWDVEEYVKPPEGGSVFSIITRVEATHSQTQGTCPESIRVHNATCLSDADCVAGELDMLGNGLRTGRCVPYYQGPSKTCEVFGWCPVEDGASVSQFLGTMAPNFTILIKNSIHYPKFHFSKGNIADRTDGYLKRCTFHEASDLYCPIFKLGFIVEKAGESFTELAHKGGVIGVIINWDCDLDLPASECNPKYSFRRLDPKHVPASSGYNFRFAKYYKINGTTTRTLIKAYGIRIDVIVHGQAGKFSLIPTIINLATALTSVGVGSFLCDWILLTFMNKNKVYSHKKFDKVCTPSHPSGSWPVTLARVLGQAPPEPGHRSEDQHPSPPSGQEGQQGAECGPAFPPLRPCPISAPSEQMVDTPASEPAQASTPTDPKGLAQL
T2 sequence (P56373 1-397): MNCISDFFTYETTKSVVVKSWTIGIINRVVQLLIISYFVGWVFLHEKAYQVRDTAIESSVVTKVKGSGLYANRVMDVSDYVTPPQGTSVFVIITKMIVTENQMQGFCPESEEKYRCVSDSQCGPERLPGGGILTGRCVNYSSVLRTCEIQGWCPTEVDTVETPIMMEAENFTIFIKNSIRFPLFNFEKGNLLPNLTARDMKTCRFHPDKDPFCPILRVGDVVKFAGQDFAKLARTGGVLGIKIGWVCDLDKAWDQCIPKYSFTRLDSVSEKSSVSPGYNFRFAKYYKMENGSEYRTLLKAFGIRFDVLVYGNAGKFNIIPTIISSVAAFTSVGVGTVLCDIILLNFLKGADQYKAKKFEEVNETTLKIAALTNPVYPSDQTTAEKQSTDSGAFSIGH
Experimental: as §1, §2

Row | SMILES | IC50 (rat P2X3 receptor) [nM] | IC50 (human P2X2/3 receptor) [nM]
1 | Cc1cccc(-n2cc(-c3ccc(F)cc3)c3c(NC4CCOCC4)ncnc32)c1 [Compound 11, [5-(4-Fluoro-phenyl)-7-m-tolyl-7H-pyrrolo[2,3-d]pyrimidin-4-yl]-(tetrahydro-pyran-4-yl)-amine] | ~309 | 
2 | Cc1ccc(-n2cc(-c3ccccc3)c3c(N[C@H](C)CO)ncnc32)cc1Cl [Compound 12, (R)-2-[7-(3-Chloro-4-methyl-phenyl)-5-phenyl-7H-pyrrolo[2,3-d]pyrimidin-4-ylamino]-propan-1-ol] |  | ~501
